From patent publication US10952431B2, “Releasable encapsulation compositions” (Battelle Memorial Institute, priority 2016, dated 2021)

Test: Particle size distribution before and after encapsulation
Format: physicochemical
Details: FIG. 6A, non-encapsulated
From the text: FIGS. 6A-6B show charts of the particle size distribution of TAED. […] Upon encapsulation, approximately 50% of the particles are distributed in the particle size range of 1 and 2 microns. This information also confirms the TAED is coated with the nonionic amphiphilic graft copolymer (PLMA-g-PEG).

CC(=O)N(CCN(C(C)=O)C(C)=O)C(C)=O [TAED, tetraacetylethylene-diamine]
particle size (majority of particles): 20-30 microns
